For one compound, Activity results are on record in ChEMBL document CHEMBL2074185, “Differential effects of the breast cancer resistance protein on the cellular accumulation and cytotoxicity of 9-aminocamptothecin and 9-nitrocamptothecin” (Cancer Res, 2003).

The data set deals with T1, Broad substrate specificity ATP-binding cassette transporter ABCG2 (Homo sapiens, UniProt Q9UNQ0).
T1 sequence (Q9UNQ0 whole entry): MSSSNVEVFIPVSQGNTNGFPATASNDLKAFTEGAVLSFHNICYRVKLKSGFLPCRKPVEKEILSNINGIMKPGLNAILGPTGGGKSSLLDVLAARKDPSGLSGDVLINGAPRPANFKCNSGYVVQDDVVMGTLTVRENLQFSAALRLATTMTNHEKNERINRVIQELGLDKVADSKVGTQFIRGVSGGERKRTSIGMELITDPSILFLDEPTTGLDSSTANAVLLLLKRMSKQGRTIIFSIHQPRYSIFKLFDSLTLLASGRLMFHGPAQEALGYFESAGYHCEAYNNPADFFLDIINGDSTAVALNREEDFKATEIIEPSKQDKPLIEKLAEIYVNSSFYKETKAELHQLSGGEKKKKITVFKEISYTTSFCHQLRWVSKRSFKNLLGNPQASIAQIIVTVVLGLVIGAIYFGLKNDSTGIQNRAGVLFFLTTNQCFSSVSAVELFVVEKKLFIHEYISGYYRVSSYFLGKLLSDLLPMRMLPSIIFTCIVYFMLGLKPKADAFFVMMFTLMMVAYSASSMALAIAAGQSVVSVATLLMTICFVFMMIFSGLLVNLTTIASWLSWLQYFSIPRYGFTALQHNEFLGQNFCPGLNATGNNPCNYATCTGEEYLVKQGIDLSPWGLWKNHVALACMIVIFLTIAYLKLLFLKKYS
The data set can be described thus: TP_TRANSPORTER: uptake in BCRP-expressing HEK293 cells. The format is functional, cell-based.

For the compound `CC[C@@]1(O)C(=O)OCc2c1cc1n(c2=O)Cc2cc3c(N)cccc3nc2-1` [9-AMINOCAMPTOTHECIN], the Activity result is “substrate []”.
